For test [1], the target named is T1, catalytic domain of human Bub1 (amino acids 704-1085) (Homo sapiens, UniProt O43683).
T1 construct: catalytic domain of human Bub1 (amino acids 704-1085); His6 (N); made in house; host or cells: insect cells (Hi5)
Put plainly: Bub1 kinase assay (TR-FRET). The format is biochemical. The conditions noted are these: 10 μM ATP, avg, read-out: Bub1 avg (IC50 [mol/l]). In outline: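 Readout is the 665/620 nm TR-FRET ratio from anti-phosphoserine antibody, Eu-labelled anti-mouse IgG and streptavidin-XL665, scaled between no-enzyme and uninhibited controls. Reaction: 1 μM biotinylated peptide, 10 μM ATP, 60 min, 22 °C, after 15 min compound preincubation with His6-Bub1 (704-1085, insect-expressed, ~200 ng/ml).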
On the technique in general: Time-resolved FRET reads energy transfer from a long-lived donor to a nearby acceptor.

Test [2] deals with human cervical tumor cell line HeLa (ATCC CCL-2). Put plainly: SAC-Formation - Nocodazole-Induced Assay. The format is cell-based. The conditions noted are these: Homo sapiens, HeLa, 24 h, HeLa cells, nocodazole 0.1 μg/ml together with test compound, decrease of mitotic cells (phospho-histone H3 Ser10). The essentials: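 HeLa cells, plated overnight, were treated 24 h at 37 °C with nocodazole (0.1 μg/ml final) plus test compound (0.005–20 μM, 0.5% DMSO) added at the same time. After fixation, anti-phospho-histone H3 Ser10 and Hoechst staining gave the mitotic cell fraction by imaging. Values came from four-parameter Hill fits.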

T1 sequence (O43683 704-1085): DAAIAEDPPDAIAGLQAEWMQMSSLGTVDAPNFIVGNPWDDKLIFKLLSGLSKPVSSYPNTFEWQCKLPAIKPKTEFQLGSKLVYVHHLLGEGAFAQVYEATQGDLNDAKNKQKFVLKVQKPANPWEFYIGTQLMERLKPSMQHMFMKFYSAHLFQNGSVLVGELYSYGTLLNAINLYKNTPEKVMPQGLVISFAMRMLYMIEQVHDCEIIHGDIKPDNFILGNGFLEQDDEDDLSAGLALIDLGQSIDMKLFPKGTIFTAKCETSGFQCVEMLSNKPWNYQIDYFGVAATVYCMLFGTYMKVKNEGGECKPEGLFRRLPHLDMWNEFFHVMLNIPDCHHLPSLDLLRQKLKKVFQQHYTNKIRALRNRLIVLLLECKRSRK

In the case of `CC(=O)Nc1cc(NC(=O)c2c(C)nsc2Nc2cnc(C(F)(F)F)cn2)ccc1F` [Example 206, N-(3-acetamido-4-fluorophenyl)-3-methyl-5-{[5-(trifluoromethyl)pyrazin-2-yl]amino}-1,2-thiazole-4-carboxamide], the IC50 was determined as 13000 nM in test [1] and 110 nM in test [2].

With `CNC(=O)c1ccc(NC(=O)c2c(C)nsc2Nc2cnc3ccccc3n2)cc1F` [Example 207, N-[3-fluoro-4-(methylcarbamoyl)phenyl]-3-methyl-5-(quinoxalin-2-ylamino)-1,2-thiazole-4-carboxamide], the values for the IC50 in test [1] and in test [2] were above 20000 nM and 200 nM, respectively.

In the case of `CNC(=O)c1ccc(NC(=O)c2c(C)nsc2Nc2ccc(C#N)cn2)cc1F` [Example 208, 5-[(5-cyanopyridin-2-yl)amino]-N-[3-fluoro-4-(methylcarbamoyl)phenyl]-3-methyl-1,2-thiazole-4-carboxamide], the IC50 is above 20000 nM in test [1] and 330 nM in test [2].

In the case of `Cc1nsc(Nc2cncc(C(F)(F)F)n2)c1C(=O)Nc1ccc(OCCCN)nc1` [Example 209, N-[6-(3-aminopropoxy)pyridin-3-yl]-3-methyl-5-{[6-(trifluoromethyl)pyrazin-2-yl]amino}-1,2-thiazole-4-carboxamide], the IC50 was above 20000 nM in test [1] and 2100 nM in test [2].

Turning to `CNS(=O)(=O)c1ccc(NC(=O)c2c(C)nsc2Nc2cc(C#N)ccn2)cc1` [Example 210, 5-[(4-cyanopyridin-2-yl)amino]-3-methyl-N-[4-(methylsulfamoyl)phenyl]-1,2-thiazole-4-carboxamide], the IC50 is above 20000 nM in test [1] and 3200 nM in test [2].

In the case of `CNS(=O)(=O)c1ccc(NC(=O)c2c(C)nsc2Nc2cncc(C(F)(F)F)n2)cc1` [Example 211, 3-methyl-N-[4-(methylsulfamoyl)phenyl]-5-{[6-(trifluoromethyl)pyrazin-2-yl]amino}-1,2-thiazole-4-carboxamide], the IC50 in test [1] turned out to be 4300 nM; in test [2], 96 nM.

On to `CNS(=O)(=O)c1ccc(NC(=O)c2c(C)nsc2Nc2cnc(C(F)(F)F)cn2)cc1` [Example 212, 3-methyl-N-[4-(methylsulfamoyl)phenyl]-5-{[5-(trifluoromethyl)pyrazin-2-yl]amino}-1,2-thiazole-4-carboxamide], for which the IC50 was above 20000 nM in test [1] and 2000 nM in test [2].

Take `Cc1nsc(Nc2cnc(C(F)(F)F)cn2)c1C(=O)Nc1ccc(C(=O)NCCN2CCCC(F)C2)cc1` (stereo not drawn) [Example 213, N-(4-{[2-(3-fluoropiperidin-1-yl)ethyl]carbamoyl}phenyl)-3-methyl-5-{[5-(trifluoromethyl)pyrazin-2-yl]amino}-1,2-thiazole-4-carboxamide]: the IC50 in test [1] came to 17000 nM; in test [2], 2700 nM.

On to `Cc1nsc(Nc2cncc(C(F)(F)F)n2)c1C(=O)Nc1ccc(C(=O)NCCN2CCCC(F)(F)C2)cc1` [Example 214, N-(4-{[2-(3,3-difluoropiperidin-1-yl)ethyl]carbamoyl}phenyl)-3-methyl-5-{[6-(trifluoromethyl)pyrazin-2-yl]amino}-1,2-thiazole-4-carboxamide], for which the IC50 was above 20000 nM in test [1] and 320 nM in test [2].

In the case of `Cc1nsc(Nc2cnc(C(F)(F)F)cn2)c1C(=O)Nc1ccc(OCCNC(=O)OC(C)(C)C)c(F)c1` [Example 215, tert-butyl [2-(2-fluoro-4-{[(3-methyl-5-{[5-(trifluoromethyl)pyrazin-2-yl]amino}-1,2-thiazol-4-yl)carbonyl]amino}phenoxy)ethyl]carbamate], the IC50 in test [1] is above 20000 nM; in test [2] it was 210 nM.

Regarding `Cc1nsc(Nc2cncc(C(F)(F)F)n2)c1C(=O)Nc1ccc(OCCNC(=O)OC(C)(C)C)c(F)c1` [Example 216, tert-butyl [2-(2-fluoro-4-{[(3-methyl-5-{[6-(trifluoromethyl)pyrazin-2-yl]amino}-1,2-thiazol-4-yl)carbonyl]amino}phenoxy)ethyl]carbamate], the IC50 in test [1] is above 20000 nM; in test [2] it was 140 nM.

`Cc1nsc(Nc2cnc(C(F)(F)F)cn2)c1C(=O)Nc1ccc(OC2CCN(C(=O)OC(C)(C)C)CC2)c(F)c1` [Example 217, tert-butyl 4-(2-fluoro-4-{[(3-methyl-5-{[5-(trifluoromethyl)pyrazin-2-yl]amino}-1,2-thiazol-4-yl)carbonyl]amino}phenoxy)piperidine-1-carboxylate]: the IC50 in test [1] is above 20000 nM; in test [2], 860 nM.

On to `Cc1nsc(Nc2cncc(C(F)(F)F)n2)c1C(=O)Nc1ccc(OC2CCN(C(C)C)CC2)nc1` [Example 218, N-{6-[(1-isopropylpiperidin-4-yl)oxy]pyridin-3-yl}-3-methyl-5-{[6-(trifluoromethyl)pyrazin-2-yl]amino}-1,2-thiazole-4-carboxamide], for which the IC50 is above 20000 nM in test [1] and 380 nM in test [2].

As to `Cc1nsc(Nc2cncc(C(F)(F)F)n2)c1C(=O)Nc1ccc(OC2CCN(C)CC2)nc1` [Example 219, 3-methyl-N-{6-[(1-methylpiperidin-4-yl)oxy]pyridin-3-yl}-5-{[6-(trifluoromethyl)pyrazin-2-yl]amino}-1,2-thiazole-4-carboxamide], the results for the IC50 in test [1] and in test [2] were above 20000 nM and 910 nM, respectively.

Take `Cc1nsc(Nc2cnc(C(F)(F)F)cn2)c1C(=O)Nc1ccc(OC2CCN(C)CC2)nc1` [Example 220, 3-methyl-N-{6-[(1-methylpiperidin-4-yl)oxy]pyridin-3-yl}-5-{[5-(trifluoromethyl)pyrazin-2-yl]amino}-1,2-thiazole-4-carboxamide]: the IC50 in test [1] is above 20000 nM; in test [2], 1100 nM.

Regarding `Cc1nsc(Nc2cnc(C(F)(F)F)cn2)c1C(=O)Nc1ccc(OCCN)c(F)c1` [Example 221, 3-N-[4-(2-aminoethoxy)-3-fluorophenyl]-3-methyl-5-{[5-(trifluoromethyl)pyrazin-2-yl]amino}-1,2-thiazole-4-carboxamide], the IC50 in test [1] was above 20000 nM; in test [2], 92 nM.

Consider `Cc1nsc(Nc2cncc(C(F)(F)F)n2)c1C(=O)Nc1ccc(C(=O)NC2CCN(C(=O)OC(C)(C)C)CC2)cc1` [Example 222, tert-butyl 4-[(4-{[(3-methyl-5-{[6-(trifluoromethyl)pyrazin-2-yl]amino}-1,2-thiazol-4-yl)carbonyl]amino}benzoyl)amino] piperidine-1-carboxylate], for which the IC50 in test [1] is above 20000 nM; in test [2] it was 770 nM.

`Cc1nsc(Nc2cncc(C(F)(F)F)n2)c1C(=O)Nc1ccc(OC2CCN(CCF)CC2)c(F)c1` [Example 223, N-(3-fluoro-4-{[1-(2-fluoroethyl)piperidin-4-yl]oxy}phenyl)-3-methyl-5-{[6-(trifluoromethyl)pyrazin-2-yl]amino}-1,2-thiazole-4-carboxamide]: the results for the IC50 in test [1] and in test [2] were above 20000 nM and 180 nM, respectively.

In the case of `Cc1nsc(Nc2cncc(C(F)(F)F)n2)c1C(=O)Nc1ccc(OC2CCN(CC(F)F)CC2)c(F)c1` [Example 224, N-(4-{[1-(2,2-difluoroethyl)piperidin-4-yl]oxy}-3-fluorophenyl)-3-methyl-5-{[6-(trifluoromethyl)pyrazin-2-yl]amino}-1,2-thiazole-4-carboxamide], the IC50 in test [1] is above 20000 nM; in test [2], 110 nM.

In the case of `Cc1nsc(Nc2cncc(C(F)(F)F)n2)c1C(=O)Nc1ccc(C(=O)NC2CCN(CC(F)F)CC2)cc1` [Example 225, N-N-(4-{[1-(2,2-difluoroethyl)piperidin-4-yl]carbamoyl}phenyl)-3-methyl-5-{[6-(trifluoromethyl)pyrazin-2-yl]amino}-1,2-thiazole-4-carboxamide], the results for the IC50 in test [1] and in test [2] were above 20000 nM and 310 nM, respectively.

Consider `Cc1nsc(Nc2cncc(C(F)(F)F)n2)c1C(=O)Nc1ccc(OCC2CCN(C(=O)OC(C)(C)C)CC2)nc1` [Example 226, tert-butyl 4-{[(5-{[(3-methyl-5-{[6-(trifluoromethyl)pyrazin-2-yl]amino}-1,2-thiazol-4-yl)carbonyl]amino}pyridin-2-yl)oxy]methyl}piperidine-1-carboxylate], for which the results for the IC50 in test [1] and in test [2] were above 20000 nM and 120 nM, respectively.

For `Cc1nsc(Nc2cnc(C(F)(F)F)cn2)c1C(=O)Nc1ccc(OCC2CCN(C(=O)OC(C)(C)C)CC2)nc1` [Example 227, tert-butyl 4-{[(5-{[(3-methyl-5-{[5-(trifluoromethyl)pyrazin-2-yl]amino}-1,2-thiazol-4-yl)carbonyl]amino}pyridin-2-yl)oxy]methyl}piperidine-1-carboxylate], the IC50 in test [1] was above 20000 nM; in test [2], 58 nM.

Take `Cc1nsc(Nc2cnc(C(F)(F)F)cn2)c1C(=O)Nc1ccc(OCC2CCCN(C(=O)OC(C)(C)C)C2)nc1` (stereo not drawn) [Example 228, tert-butyl 3-{[(5-{[(3-methyl-5-{[5-(trifluoromethyl)pyrazin-2-yl]amino}-1,2-thiazol-4-yl)carbonyl]amino}pyridin-2-yl)oxy]methyl}piperidine-1-carboxylate]: the IC50 in test [1] was above 20000 nM; in test [2], 180 nM.

Take `Cc1nsc(Nc2cnc(C(F)(F)F)cn2)c1C(=O)Nc1ccc(F)c(OC2CCN(C(=O)OC(C)(C)C)CC2)c1` [Example 229, tert-butyl 4-(2-fluoro-5-{[(3-methyl-5-{[5-(trifluoromethyl)pyrazin-2-yl]amino}-1,2-thiazol-4-yl)carbonyl]amino}phenoxy)piperidine-1-carboxylate]: the results for the IC50 in test [1] and in test [2] were above 20000 nM and 140 nM, respectively.

These data come from patent US20170334899A1, “AMINO-SUBSTITUTED ISOTHIAZOLES” (Bayer Pharma Aktiengesellschaft, priority 2014, published 2017).
